This is an account of results in ChEMBL document CHEMBL1201862, “PubChem BioAssay data set” (2004).

Each structure is given as a SMILES string.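 Following 48 hours of exposure in 96-well plates, responses at five concentrations were used to interpolate endpoints linearly. The concentration for 50% growth inhibition is given as GI50.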 Calls of active or inactive are those of the source. No stated cut-off is given here; in the data, active = GI50 up to about 1.1 µM and inactive = higher.

Test systems include NCI-H23; COLO 205; HOP-62; SNB-19; SK-MEL-28; UACC-257; MCF7; MDA-MB-231; Malme-3M; EKVX; RXF 393; OVCAR-8; SF-268; HT-29; OVCAR-4; SNB-75; SN12C; SK-OV-3; M14; CAKI-1.
Holding throughout (test): NCI tumour cell line growth inhibition, 48 h

For the molecule `Cc1nc2ccc(F)cc2c(Cl)c1CCCl`, the GI50 with NCI-H23 was 42.3 µM (inactive); with COLO 205, 20 µM (inactive); with HOP-62, 84.9 µM (inactive); in the assay on SNB-19, 36.4 µM (inactive); with SK-MEL-28, 40.3 µM (inactive); in the assay on UACC-257, 39 µM (inactive). Moreover, the GI50 in the assay on MCF7 was 43.5 µM (inactive); in the assay with MDA-MB-231, 27 µM (inactive); in the assay with Malme-3M it was 31.6 µM (inactive); with EKVX it was 13.9 µM (inactive); in the assay on RXF 393 it was 21.7 µM (inactive); with OVCAR-8, 49.3 µM (inactive). Moreover, the GI50 in the assay on SF-268 was 37.1 µM (inactive); in the assay with HT-29 it was 25 µM (inactive); with OVCAR-4, 83.8 µM (inactive); in the assay on SNB-75 it was 72.6 µM (inactive).
As to `Cc1ccc(-c2cnc(NC3OC(COC(=O)c4ccccc4)C(OC(=O)c4ccccc4)C(OC(=O)c4ccccc4)C3OC(=O)c3ccccc3)s2)cc1` (stereo not given), the GI50 with NCI-H23 was > 100 µM (inactive); with COLO 205 it was > 100 µM (inactive); with HOP-62 it was > 100 µM (inactive); in the assay on SNB-19, > 100 µM (inactive); in the assay on SK-MEL-28, > 100 µM (inactive); with UACC-257 it was 67.9 µM (inactive). The GI50 with MCF7, in the assay on MDA-MB-231, with Malme-3M, in the assay on SN12C, in the assay on EKVX and with RXF 393 was > 100 µM (inactive) in each case. For the same molecule, the GI50 in the assay with OVCAR-8 is > 100 µM (inactive); with SF-268, > 100 µM (inactive); with HT-29, > 100 µM (inactive); with SK-OV-3, > 100 µM (inactive); in the assay with M14, 40.6 µM (inactive); in the assay with OVCAR-4, 68.1 µM (inactive). For the same molecule, in the assay on SNB-75, the GI50 was > 100 µM (inactive).
For `O=C1N/N=C\Nc2ccc(cc2)S(=O)(=O)c2ccc(cc2)/N=C\NNC1=O`, the GI50 in the assay with NCI-H23, in the assay on COLO 205, with HOP-62, with SNB-19, in the assay with SK-MEL-28 and with UACC-257 was > 100 µM (inactive) each time. In addition, the GI50 in the assay with CAKI-1, with MCF7, in the assay with MDA-MB-231, in the assay on SN12C, in the assay on EKVX and with RXF 393 was > 100 µM (inactive) throughout. Moreover, the GI50 in the assay with OVCAR-8, in the assay on SF-268, in the assay on HT-29, in the assay on SK-OV-3, in the assay on M14 and in the assay with OVCAR-4 was > 100 µM (inactive) each time.
As to `CC(C)(C)OCC1NC(=O)[C@@H]2Cc3c([nH]c4ccccc34)C(C3CCCCC3)N2C1=O` (stereo not given in full), the GI50 in the assay with NCI-H23 is 21.8 µM (inactive); in the assay on COLO 205, 20.7 µM (inactive); in the assay with HOP-62, 16.1 µM (inactive); in the assay with SNB-19, 37.3 µM (inactive); in the assay on SK-MEL-28, 22.6 µM (inactive); with UACC-257 it was 18.4 µM (inactive). Further, the GI50 in the assay with CAKI-1 was 17.7 µM (inactive); in the assay on MCF7 it was 31.6 µM (inactive); with MDA-MB-231 it was 17.4 µM (inactive); in the assay with Malme-3M, 21.1 µM (inactive); in the assay on SN12C, 19.6 µM (inactive); in the assay on EKVX, 27.2 µM (inactive). Also, the GI50 with RXF 393 was 15.6 µM (inactive); in the assay on OVCAR-8, 29.9 µM (inactive); in the assay on SF-268 it was 28.8 µM (inactive); in the assay on HT-29, 18 µM (inactive); with SK-OV-3, 51.4 µM (inactive); in the assay on M14 it was 19.3 µM (inactive). Also, the GI50 in the assay with OVCAR-4 is 23.9 µM (inactive).
In the case of `C/C(=N\NC(=S)NCCCCNC(=S)N/N=C(\C)c1ccccn1)c1ccccc1`, the GI50 is 2.73 µM (inactive) in the assay on NCI-H23; 0.832 µM (active) in the assay on COLO 205; 0.745 µM (active) in the assay with HOP-62; > 24.8 µM (inactive) with SNB-19; 2.05 µM (inactive) in the assay on SK-MEL-28; 1.78 µM (inactive) in the assay on UACC-257. For the same molecule, the GI50 in the assay with MCF7 is 0.416 µM (active); in the assay with MDA-MB-231, 5.09 µM (inactive); with Malme-3M, 0.845 µM (active); with SN12C it was 0.859 µM (active); in the assay on EKVX, 2.23 µM (inactive); in the assay on RXF 393, 1.02 µM (active). The GI50 in the assay with OVCAR-8 is 0.337 µM (active); in the assay on SF-268, 0.394 µM (active); in the assay with HT-29, 0.531 µM (active); with SK-OV-3 it was 2.27 µM (inactive); in the assay on OVCAR-4 it was 1.43 µM (inactive); in the assay with SNB-75, 0.993 µM (active).
For the molecule `O=C1NC(=O)C(C(CC(=O)c2ccc([N+](=O)[O-])cc2)c2ccccc2)C(=O)N1` (stereo not given), the GI50 in the assay with NCI-H23 is 20.7 µM (inactive); in the assay on COLO 205 it was > 100 µM (inactive); in the assay on HOP-62 it was > 100 µM (inactive); in the assay on SNB-19, 24.8 µM (inactive); with SK-MEL-28 it was > 100 µM (inactive); with UACC-257 it was > 100 µM (inactive). The GI50 in the assay on MCF7 is 13.5 µM (inactive); in the assay on MDA-MB-231, > 100 µM (inactive); with Malme-3M, 0.0334 µM (active); in the assay on SN12C it was > 100 µM (inactive); in the assay on RXF 393, 2.77 µM (inactive); in the assay with OVCAR-8 it was > 100 µM (inactive). Moreover, the GI50 was 19.9 µM (inactive) with SF-268; 52.2 µM (inactive) in the assay on HT-29; > 100 µM (inactive) with SK-OV-3; > 100 µM (inactive) in the assay on M14; > 100 µM (inactive) in the assay with OVCAR-4; > 100 µM (inactive) in the assay on SNB-75.
As to `O=C(n1c(=O)n(-c2ccc(Cl)cc2)c(=O)n1C(=O)C(Cl)(Cl)Cl)C(Cl)(Cl)Cl`, the GI50 in the assay on NCI-H23, with COLO 205, in the assay with HOP-62, with SNB-19, with SK-MEL-28 and in the assay with UACC-257 was > 100 µM (inactive) throughout. The GI50 in the assay with CAKI-1 is > 100 µM (inactive); in the assay with MCF7, > 100 µM (inactive); in the assay on MDA-MB-231, 7.67 µM (inactive); in the assay on Malme-3M, > 100 µM (inactive); in the assay with SN12C it was > 100 µM (inactive); with EKVX, > 100 µM (inactive). Moreover, the GI50 is > 100 µM (inactive) in the assay on OVCAR-8; 50 µM (inactive) in the assay with SF-268; > 100 µM (inactive) in the assay with HT-29; > 100 µM (inactive) in the assay on SK-OV-3; > 100 µM (inactive) with OVCAR-4.
Consider `COc1ccc(C2CC(c3cc4c(C)c(C(=O)c5ccccc5)oc4cc3O)=Nc3ccccc3S2)cc1OC` (stereo not given), for which the GI50 is 52.7 µM (inactive) with NCI-H23; > 100 µM (inactive) in the assay with COLO 205; 48.8 µM (inactive) in the assay with SNB-19; > 100 µM (inactive) in the assay on SK-MEL-28; > 100 µM (inactive) with UACC-257; > 64 µM (inactive) in the assay with MCF7. Moreover, the GI50 with MDA-MB-231 was > 87.3 µM (inactive); with Malme-3M, 25.8 µM (inactive); in the assay on SN12C it was > 100 µM (inactive); in the assay on EKVX, 28.2 µM (inactive); in the assay on OVCAR-8 it was > 100 µM (inactive); in the assay with SF-268 it was > 42.7 µM (inactive). Further, the values for the GI50 with HT-29, in the assay with M14 and in the assay with SNB-75 were > 100 µM (inactive), > 57.1 µM (inactive) and 73.6 µM (inactive), respectively.
In the case of `O=C1c2ccccc2-c2nc(-c3cccs3)cc3c2c1nc1ccccc13`, the GI50 in the assay with NCI-H23 is 11.9 µM (inactive); in the assay on COLO 205, 13.2 µM (inactive); in the assay on HOP-62, 22 µM (inactive); in the assay with SNB-19, 35.9 µM (inactive); in the assay on SK-MEL-28 it was 17.5 µM (inactive); in the assay on UACC-257 it was 14.1 µM (inactive). The GI50 is 88.7 µM (inactive) in the assay with CAKI-1; 13 µM (inactive) in the assay with MCF7; 58.3 µM (inactive) in the assay with MDA-MB-231; 3.56 µM (inactive) with Malme-3M; > 100 µM (inactive) in the assay on SN12C; 98.2 µM (inactive) in the assay on EKVX. Also, the GI50 in the assay on OVCAR-8 is 41.8 µM (inactive); in the assay with SF-268, 12.5 µM (inactive); with HT-29, 21.5 µM (inactive); in the assay with SK-OV-3, > 100 µM (inactive); in the assay on M14, 3.27 µM (inactive); in the assay on OVCAR-4 it was 56 µM (inactive). Moreover, the GI50 in the assay on SNB-75 is 24.9 µM (inactive).
As for `CC1(C)C(=O)N(O)C(C)(C)N1N=O`, the GI50 in the assay on NCI-H23, with COLO 205, in the assay on HOP-62, in the assay on SNB-19, in the assay on UACC-257 and in the assay on CAKI-1 was > 10 µM (inactive) each time. Moreover, the GI50 in the assay with MCF7, in the assay with MDA-MB-231, with Malme-3M, with SN12C, in the assay on EKVX and in the assay with RXF 393 was > 10 µM (inactive) each time. Also, the GI50 in the assay on OVCAR-8, with SF-268, with HT-29, in the assay on M14 and with OVCAR-4 was > 10 µM (inactive) each time.
On to `CCc1n[nH]c(=O)n1/N=C/c1ccccc1Cl`, for which the GI50 in the assay on NCI-H23 was > 100 µM (inactive); in the assay with COLO 205, > 100 µM (inactive); in the assay with HOP-62 it was 76.2 µM (inactive); in the assay on SNB-19, > 100 µM (inactive); in the assay with SK-MEL-28, > 100 µM (inactive); in the assay on UACC-257 it was > 100 µM (inactive). In addition, the GI50 with CAKI-1 is > 100 µM (inactive); with MCF7, > 100 µM (inactive); with MDA-MB-231 it was > 100 µM (inactive); in the assay on Malme-3M it was > 100 µM (inactive); in the assay with SN12C it was > 100 µM (inactive); with EKVX, 1.42 µM (inactive). The GI50 was 0.474 µM (active) with RXF 393; > 100 µM (inactive) in the assay with OVCAR-8; 50 µM (inactive) with SF-268; > 100 µM (inactive) in the assay on HT-29; > 100 µM (inactive) with SK-OV-3; > 100 µM (inactive) in the assay on M14. Also, in the assay with OVCAR-4, the GI50 was > 100 µM (inactive).
